# In patent publication US20240287138A1, “CYCLIC PEPTIDES FOR INHIBITING TNF RECEPTOR 1 ACTIVITY” (Merck Sharp & Dohme LLC, priority 2023, published 2024):
# pIC50, pKd: −log10 of the molar value. Read-outs that look alike come from different tables or passages of the source. Numbered stars: 1 amine (or outer) side, 2 acyl side, 3 side chain; on linkers, the order of the positions; unused ones are H or OH. Square brackets hold non-standard residues; d marks the D form. Peptide text beside a SMILES is read from it. * marks the point of attachment. Trp(βS-Me,7-OMe) = COc1cccc2c([C@H](C)[C@H](N)C(=O)O)c[nH]c12; X44 = NC(=O)c1ccc([C@@H](O)[C@H](N[*:1])C(=O)[*:2])cc1; Phe(4-SO2NH2) = N[C@@H](Cc1ccc(S(N)(=O)=O)cc1)C(=O)O; dPro(trans-4-NMe2) = CN(C)[C@@H]1CN[C@@H](C(=O)O)C1; Ala(indazol-1-yl) = N[C@@H](Cn1ncc2ccccc21)C(=O)O; Trp(7-CN) = N#Cc1cccc2c(C[C@H](N)C(=O)O)c[nH]c12; Phe(4-CONH2) = NC(=O)c1ccc(C[C@H](N)C(=O)O)cc1; Phe(4-COOH) = N[C@@H](Cc1ccc(C(=O)O)cc1)C(=O)O; 4Pal(3S-Me) = C[C@@H](c1ccncc1)[C@H](N)C(=O)O; Trp(7-aza) = N[C@@H](Cc1c[nH]c2ncccc12)C(=O)O; Pip(5R-OH) = O=C(O)[C@@H]1CC[C@@H](O)CN1; X1 = O=C([C@@H]1CC[C@H](N[*:1])C1)[*:2]; Pip(4-aza) = O=C(O)[C@@H]1CNCCN1; 4Pal = N[C@@H](Cc1ccncc1)C(=O)O; dHyp = O=C(O)[C@H]1C[C@H](O)CN1; Aad = N[C@@H](CCCC(=O)O)C(=O)O; Ahp(2) = CCCCC[C@H](N)C(=O)O; αMeS = C[C@](N)(CO)C(=O)O; Carboxymethyl = O=C(O)C*; Nle = CCCC[C@H](N)C(=O)O; Sar = CNCC(=O)O
# Key:
# [1] = biological target: T1, human soluble TNFR1 (sTNFR1) (Homo sapiens, UniProt P19438); assay: Human sTNFR1-peptide displacement assay (LanthaScreen Eu TR-FRET binding assay)
# T1 construct: made in house; host or cells: Sf21 (baculovirus)
# T1 sequence (P19438 with tags, fused parts or gaps): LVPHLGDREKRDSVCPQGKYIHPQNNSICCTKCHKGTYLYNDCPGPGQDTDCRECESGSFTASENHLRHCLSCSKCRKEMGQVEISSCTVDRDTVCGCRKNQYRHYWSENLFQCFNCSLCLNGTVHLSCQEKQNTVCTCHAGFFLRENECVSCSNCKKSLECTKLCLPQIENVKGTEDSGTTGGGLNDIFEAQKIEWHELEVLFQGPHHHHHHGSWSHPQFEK
# In short: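 Readout is the 665/615 nm TR-FRET ratio (Eu anti-His donor, streptavidin-Alexa647 acceptor), normalized to DMSO and saturating displacer, fit by Morrison-based five-parameter logistic for Kd^app. His-tagged sTNFR1 (1-211) prebound to 100 nM biotinylated peptide SEQ ID NO.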
# [2] = biological target: T2, TNFα-induced NF-κB signal transduction pathway (TNFR1 signaling) in THP-1 cells (Homo sapiens, UniProt P19438); assay: THP-1 Lucia NF-κB reporter cell assay, inhibition of TNFα-induced NF-κB signaling; format: cell-based; details: THP-1 NF-κB Lucia reporter cells, 10 ng/mL TNFα, 16-18 h, secreted luciferase, read-out: THP-1 IC50
# T2 sequence (P19438 30-455): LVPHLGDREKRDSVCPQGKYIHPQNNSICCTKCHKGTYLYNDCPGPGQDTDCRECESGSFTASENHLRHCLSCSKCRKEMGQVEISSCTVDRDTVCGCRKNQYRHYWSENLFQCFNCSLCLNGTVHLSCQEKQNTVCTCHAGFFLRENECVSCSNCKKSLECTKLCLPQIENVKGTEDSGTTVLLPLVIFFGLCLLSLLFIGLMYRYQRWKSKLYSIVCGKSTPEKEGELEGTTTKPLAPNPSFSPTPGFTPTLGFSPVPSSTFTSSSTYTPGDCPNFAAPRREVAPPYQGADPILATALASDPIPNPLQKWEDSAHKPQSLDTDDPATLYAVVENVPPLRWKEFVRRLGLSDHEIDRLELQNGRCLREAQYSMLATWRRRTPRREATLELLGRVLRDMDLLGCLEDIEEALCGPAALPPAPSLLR
# In short: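 IC50 from a 4-parameter logistic fit of secreted luciferase luminescence (QUANTI-Luc), normalised to min/max controls. Reporter THP-1 cells were exposed to peptides for 1 h at 37 °C before 10 ng/mL TNFα (final) was added overnight (16–18 h).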
SMILES,pKd [1],pIC50 [2],pIC50 ([2]; listed as 284)
"CCCCC[C@@H]1NC(=O)[C@@H]2CC[C@@H](C2)NC(=O)[C@H]([C@@H](C)c2c[nH]c3c(OC)cccc23)NC(=O)CN(C)C(=O)[C@H](Cc2ccc(C(N)=O)cc2)NC(=O)[C@H](Cc2ccc(C(N)=O)cc2)NC(=O)[C@](C)(CO)NC(=O)[C@H](Cc2c[nH]c3c(C#N)cccc23)NC(=O)[C@H](Cc2ccc(C(=O)O)cc2)NC(=O)[C@H](CC(N)=O)NC(=O)[C@H]2C[C@H](O)CN2C(=O)[C@H](Cc2c[nH]c3ccccc23)NC(=O)[C@H](CCCC(=O)O)NC(=O)[C@H]([C@@H](C)c2ccncc2)NC1=O [SEQ ID NO. 282] (cyclo([Aad]W[dHyp]N[Phe(4-COOH)][Trp(7-CN)][αMeS][Phe(4-CONH2)][Phe(4-CONH2)][Sar][Trp(βS-Me,7-OMe)][X1][Ahp(2)][4Pal(3S-Me)]))",9.89,9.05,
"CCCC[C@@H]1NC(=O)[C@@H]2CC[C@@H](C2)NC(=O)[C@H]([C@@H](C)c2c[nH]c3c(OC)cccc23)NC(=O)CN(C)C(=O)[C@H](Cc2ccc(C(=O)O)cc2)NC(=O)[C@H](Cc2ccc(C(N)=O)cc2)NC(=O)[C@](C)(CO)NC(=O)[C@H](Cc2c[nH]c3c(C#N)cccc23)NC(=O)[C@H](Cc2ccc(C(=O)O)cc2)NC(=O)[C@H](CC(N)=O)NC(=O)[C@H]2C[C@H](OCC(=O)O)CN2C(=O)[C@H](Cc2c[nH]c3ncccc23)NC(=O)[C@@H]2CC[C@@H](O)CN2C(=O)[C@H](Cc2ccncc2)NC1=O [SEQ ID NO. 284] (cyclo([4Pal][Pip(5R-OH)][Trp(7-aza)][dHyp](Carboxymethyl)N[Phe(4-COOH)][Trp(7-CN)][αMeS][Phe(4-CONH2)][Phe(4-COOH)][Sar][Trp(βS-Me,7-OMe)][X1][Nle]))",10.05,,9.10
"CCCC[C@@H]1NC(=O)[C@@H]2CC[C@@H](C2)NC(=O)[C@H]([C@@H](C)c2c[nH]c3c(OC)cccc23)NC(=O)CN(C)C(=O)[C@H](Cc2ccc(OCC(=O)O)cc2)NC(=O)[C@H](Cc2ccc(C(N)=O)cc2)NC(=O)[C@](C)(CO)NC(=O)[C@H](Cc2c[nH]c3c(C#N)cccc23)NC(=O)[C@H](Cc2ccc(OCC(=O)O)cc2)NC(=O)[C@H](CC(N)=O)NC(=O)[C@H]2C[C@H](O)CN2C(=O)[C@H](Cc2c[nH]c3ccccc23)NC(=O)[C@@H]2CC[C@@H](O)CN2C(=O)[C@H](Cc2ccncc2)NC1=O [SEQ ID NO. 285] (cyclo([4Pal][Pip(5R-OH)]W[dHyp]NY(Carboxymethyl)[Trp(7-CN)][αMeS][Phe(4-CONH2)]Y(Carboxymethyl)[Sar][Trp(βS-Me,7-OMe)][X1][Nle]))",10.40,9.22,
"CCCC[C@@H]1NC(=O)[C@@H]2CC[C@@H](C2)NC(=O)[C@H]([C@@H](C)c2c[nH]c3c(OC)cccc23)NC(=O)CN(C)C(=O)[C@H](Cc2ccc(OCC(=O)O)cc2)NC(=O)[C@H](Cc2ccc(S(N)(=O)=O)cc2)NC(=O)[C@](C)(CO)NC(=O)[C@H](Cc2c[nH]c3c(C#N)cccc23)NC(=O)[C@H](Cc2ccc(OCC(=O)O)cc2)NC(=O)[C@H](CC(N)=O)NC(=O)[C@H]2C[C@H](O)CN2C(=O)[C@H](Cn2ncc3ccccc32)NC(=O)[C@@H]2CC[C@@H](O)CN2C(=O)[C@H](Cc2ccncc2)NC1=O [SEQ ID NO. 286] (cyclo([4Pal][Pip(5R-OH)][Ala(indazol-1-yl)][dHyp]NY(Carboxymethyl)[Trp(7-CN)][αMeS][Phe(4-SO2NH2)]Y(Carboxymethyl)[Sar][Trp(βS-Me,7-OMe)][X1][Nle]))",10.30,9.40,
"CCCC[C@@H]1NC(=O)[C@@H]2CC[C@@H](C2)NC(=O)[C@H]([C@@H](C)c2c[nH]c3c(OC)cccc23)NC(=O)CN(C)C(=O)[C@H]([C@H](O)c2ccc(C(N)=O)cc2)NC(=O)[C@H](Cc2ccc(C(=O)O)cc2)NC(=O)[C@](C)(CO)NC(=O)[C@H](Cc2c[nH]c3c(C#N)cccc23)NC(=O)[C@H](Cc2ccc(C(=O)O)cc2)NC(=O)[C@H](CC(N)=O)NC(=O)[C@H]2C[C@H](N(C)C)CN2C(=O)[C@H](Cc2c[nH]c3ncccc23)NC(=O)[C@@H]2CNCCN2C(=O)[C@H](Cc2ccncc2)NC1=O [SEQ ID NO. 287] (cyclo([4Pal][Pip(4-aza)][Trp(7-aza)][dPro(trans-4-NMe2)]N[Phe(4-COOH)][Trp(7-CN)][αMeS][Phe(4-COOH)][X44][Sar][Trp(βS-Me,7-OMe)][X1][Nle]))",9.66,8.77,
